Experimental data: patent US20100080855A1, “HEDGEHOG SIGNALING AND CANCER STEM CELLS IN HEMATOPOIETIC CELL MALIGNANCIES” (THE BOARD OF TRUSTEES OF THE LELAND STANFORD JUNIOR …, priority 2008, published 2010)

System: BCR-ABL1 driven leukemia
Settings: leukemias of mice treated with 25 mg/kg cyclopamine vs vehicle; flow cytometry lin-GFP+ c-Kit+Sca-1+

CC1=C2C[C@H]3[C@@H](CC=C4C[C@@H](O)CC[C@@]43C)[C@@H]2CC[C@]12O[C@@H]1C[C@H](C)CN[C@H]1[C@H]2C [cyclopamine]
reduction in the CML stem cell population: up to a fourteen-fold reduction
